From US20240174674A1, “NITROGEN-CONTAINING POLYCYCLIC FUSED RING COMPOUND, PHARMACEUTICAL COMPOSITION THEREOF, PREPARATION METHOD THEREFOR, AND USE THEREOF” (APPLIED PHARMACEUTICAL SCIENCE, INC., priority 2021, published 2024)

Target: RET G810R (Homo sapiens (Human), UniProt P07949, G810R)
Test: HTRF KinEASE-TK kinase activity test, RET G810R
Details: not given

Sequence of RET G810R (P07949 29-1114 G810R): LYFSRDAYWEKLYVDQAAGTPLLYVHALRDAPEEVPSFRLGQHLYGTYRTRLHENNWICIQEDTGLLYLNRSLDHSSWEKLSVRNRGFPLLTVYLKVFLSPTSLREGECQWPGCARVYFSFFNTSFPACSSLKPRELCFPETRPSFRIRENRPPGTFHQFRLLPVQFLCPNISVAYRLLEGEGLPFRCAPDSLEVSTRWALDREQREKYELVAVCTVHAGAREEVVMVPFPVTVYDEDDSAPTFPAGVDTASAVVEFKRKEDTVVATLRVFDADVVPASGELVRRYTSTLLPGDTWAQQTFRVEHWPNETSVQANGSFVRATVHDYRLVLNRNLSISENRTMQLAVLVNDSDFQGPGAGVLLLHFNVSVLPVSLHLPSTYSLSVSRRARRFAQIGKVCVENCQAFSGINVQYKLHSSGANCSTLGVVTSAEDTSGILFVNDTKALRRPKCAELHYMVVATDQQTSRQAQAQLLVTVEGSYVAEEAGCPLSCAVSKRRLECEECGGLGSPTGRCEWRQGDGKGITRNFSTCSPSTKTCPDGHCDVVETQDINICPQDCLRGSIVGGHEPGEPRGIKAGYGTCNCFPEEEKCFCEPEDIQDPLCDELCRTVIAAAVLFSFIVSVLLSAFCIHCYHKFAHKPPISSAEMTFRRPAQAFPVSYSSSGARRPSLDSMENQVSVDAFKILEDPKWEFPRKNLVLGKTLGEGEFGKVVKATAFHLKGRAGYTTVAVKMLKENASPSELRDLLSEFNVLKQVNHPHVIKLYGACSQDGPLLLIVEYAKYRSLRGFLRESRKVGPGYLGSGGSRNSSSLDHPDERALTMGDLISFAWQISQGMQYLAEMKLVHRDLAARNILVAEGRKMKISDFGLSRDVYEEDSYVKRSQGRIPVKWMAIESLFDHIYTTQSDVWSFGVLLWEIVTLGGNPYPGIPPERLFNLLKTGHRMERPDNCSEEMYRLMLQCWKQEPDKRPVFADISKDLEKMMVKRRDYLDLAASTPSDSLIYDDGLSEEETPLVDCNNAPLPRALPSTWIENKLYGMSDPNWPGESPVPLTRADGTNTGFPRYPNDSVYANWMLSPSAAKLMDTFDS

Which IC50 does the source give for `CCOc1cc(-c2cnc(N3CCC(C)(NC(=O)c4ncccc4Cl)CC3)cn2)c2c3cn[nH]c3nn2c1` [Compound 59, 3-chloro-N-(1-(5-(6-ethoxy-1H-pyrazolo[3′,4′:3,4]pyrazolo[1,5-α]pyridin-4-yl)pyrazin-2-yl)-4-methylpiperidin-4-yl)-2-picolinamide] here?
The IC50 was 4.6 nM.

`CCOc1cc(-c2ccc(N3CC[C@H](NCc4c(F)cccc4Cl)[C@@H](O)C3)nc2)c2c3cn[nH]c3nn2c1` [Compound 107, (3S,4S)-4-((2-chloro-6-fluorobenzyl)amino)-1-(5-(6-ethoxy-1H-pyrazolo[3′,4′:3,4]pyrazolo[1,5-α ]pyridin-4-yl)pyridin-2-yl)piperidin-3-ol] was tested. Which IC50 did it give?
The IC50 was 14.5 nM.

Same assay, conditions: fold versus selpercatinib (LOXO-292)

For `CCOc1cc(-c2ccc(N3CC[C@H](NC(=O)c4c(C)cccc4Cl)[C@@H](N)C3)nc2)c2c3cn[nH]c3nn2c1` [Compound 48, N-((3S,4S)-3-amino-1-(5-(6-ethoxy-1H-pyrazolo[3′,4′:3,4]pyrazolo[1,5-α]pyridin-4-yl)pyridin-2-yl)piperidin-4-yl)-2-chloro-6-methylbenzamide], which “inhibitory activity against RET G810R relative to that of selpercatinib (LOXO-292)” value is on record?
Its value is ≥ 10 times.

For `CCOc1cc(-c2ccc(N3CC[C@H](NC(=O)C(C)C(C)C)[C@@H](O)C3)nc2)c2c3cn[nH]c3nn2c1` (some centres unmarked) [Compound 89], which “inhibitory activity against RET G810R relative to that of selpercatinib (LOXO-292)” value is on record?
The value was ≥ 10 times.

Which “inhibitory activity against RET G810R relative to that of selpercatinib (LOXO-292)” value does the source give for `CCOc1cc(-c2cnc(N3CC[C@H](NC(=O)c4cc(F)ccc4Cl)[C@@H](O)C3)cn2)c2c3cn[nH]c3nn2c1` [Compound 91] here?
The value was ≥ 10 times.

How did the “inhibitory activity against RET G810R relative to that of selpercatinib (LOXO-292)” value turn out when `CCOc1cc(-c2ccc(N3CCC(O)(CNS(=O)(=O)c4ccccc4)CC3)nc2)c2c3cn[nH]c3nn2c1` [Compound 102, N-((1-(5-(6-ethoxy-1H-pyrazolo[3′,4′:3,4]pyrazolo[1,5-α]pyridin-4-yl)pyridin-2-yl)-4-hydroxypiperidin-4-yl)methylene)benzenesulfonamide] was run?
Its value is ≥ 10 times.

For `CCOc1cc(-c2ccc(N3CC4COCC(C3)N4Cc3ccc(OC)nc3)nc2)c2c3cn[nH]c3nn2c1` [Compound 114, 7-(5-(6-ethoxy-1H-pyrazolo[3′,4′:3,4]pyrazolo[1,5-α]pyridin-4-yl)pyridin-2-yl)-9-((6-methoxypyridin-3-yl)methylene)-3-oxa-7,9-diazabicyclo[3.3.1]nonane], which “inhibitory activity against RET G810R relative to that of selpercatinib (LOXO-292)” value is on record?
Its value is ≥ 10 times.

Same assay, conditions: read-out: RET G810R IC50; HTRF kinase assay

Which IC50 does the source give for `CCOc1cc(-c2ccc(N3CC[C@H](NC(=O)c4c(C)cccc4Cl)[C@@H](N)C3)nc2)c2c3cn[nH]c3nn2c1` [Compound 48, N-((3S,4S)-3-amino-1-(5-(6-ethoxy-1H-pyrazolo[3′,4′:3,4]pyrazolo[1,5-α]pyridin-4-yl)pyridin-2-yl)piperidin-4-yl)-2-chloro-6-methylbenzamide] here?
The IC50 was 2.9 nM.

How did the IC50 turn out when `CCOc1cc(-c2cnc(N3CC[C@H](NC(=O)c4ncccc4Cl)[C@@H](O)C3)cn2)c2c3cn[nH]c3nn2c1` [Compound 50] was run?
The IC50 was 17.9 nM.

How did the IC50 turn out when `CCOc1cc(-c2cnc(N3CC[C@H](NC(=O)c4c(F)cccc4Cl)[C@@H](O)C3)cn2)c2c3cn[nH]c3nn2c1` [Compound 51] was run?
The IC50 was 4.3 nM.

`CCOc1cc(-c2cnc(N3CCC(C)(NC(=O)c4ncc(F)cc4Cl)CC3)cn2)c2c3cn[nH]c3nn2c1` [Compound 55, 3-chloro-N-(1-(5-(6-ethoxy-1H-pyrazolo[3′,4′:3,4]pyrazolo[1,5-α]pyridin-4-yl)pyrazin-2-yl)-4-methylpiperidin-4-yl)-5-fluoro-2-picolinamide] was tested. Which IC50 did it give?
The IC50 was 4.5 nM.

`CCOc1cc(-c2cnc(N3CCC(C)(NC(=O)c4nc(C)ccc4Cl)CC3)cn2)c2c3cn[nH]c3nn2c1` [Compound 56] was tested. Which IC50 did it give?
Its IC50 is 23.6 nM.

How did the IC50 turn out when `CCOc1cc(-c2cnc(N3CCC(C)(NC(=O)c4c(F)ccc(F)c4F)CC3)cn2)c2c3cn[nH]c3nn2c1` [Compound 57, N-(1-(5-(6-ethoxy-1H-pyrazolo[3′,4′:3,4]pyrazolo[1,5-α]pyridin-4-yl)pyrazin-2-yl)-4-methylpiperidin-4-yl)-2,3,6-trifluorobenzamide] was run?
The IC50 was 6.9 nM.

For `CCOc1cc(-c2cnc(N3CCC(C)(NC(=O)c4cc(F)ccc4Cl)CC3)cn2)c2c3cn[nH]c3nn2c1` [Compound 58, 2-chloro-N-(1-(5-(6-ethoxy-1H-pyrazolo[3′,4′:3,4]pyrazolo[1,5-α]pyridin-4-yl)pyrazin-2-yl)-4-methylpiperidin-4-yl)-5-fluorobenzamide], which IC50 is on record?
Its IC50 is 5.6 nM.

For `CCOc1cc(-c2ccc(N3CCC(CO)(C(=O)NCC(C)C)CC3)nc2)c2c3cn[nH]c3nn2c1` [Compound 87, 1-(5-(6-ethoxy-1H-pyrazolo[3′,4′:3,4]pyrazolo[1,5-α]pyridin-4-yl)pyridin-2-yl)-4-(hydroxymethy 1)-N-isobutylpiperidine-4-carboxamide], which IC50 is on record?
The IC50 was 9.4 nM.

How did the IC50 turn out when `CCOc1cc(-c2ccc(N3CC[C@H](NC(=O)C(C)C(C)C)[C@@H](O)C3)nc2)c2c3cn[nH]c3nn2c1` (some centres unmarked) [Compound 89] was run?
Its IC50 is 2 nM.

For `CCOc1cc(-c2cnc(N3CC[C@H](NC(=O)c4cc(F)ccc4Cl)[C@@H](O)C3)cn2)c2c3cn[nH]c3nn2c1` [Compound 91], which IC50 is on record?
The IC50 was 2.2 nM.

How did the IC50 turn out when `CCOc1cc(-c2ccc(N3CCC(S(=O)(=O)NC(C)C)CC3)nc2)c2c3cn[nH]c3nn2c1` [Compound 101, 1-(5-(6-ethoxy-1H-pyrazolo[3′,4′:3,4]pyrazolo[1,5-α]pyridin-4-yl)pyridin-2-yl)-N-isopropylpiperidine-4-sulfonamide] was run?
Its IC50 is 6.6 nM.

For `CCOc1cc(-c2ccc(N3CCC(O)(CNS(=O)(=O)c4ccccc4)CC3)nc2)c2c3cn[nH]c3nn2c1` [Compound 102, N-((1-(5-(6-ethoxy-1H-pyrazolo[3′,4′:3,4]pyrazolo[1,5-α]pyridin-4-yl)pyridin-2-yl)-4-hydroxypiperidin-4-yl)methylene)benzenesulfonamide], which IC50 is on record?
The IC50 was 3.6 nM.

Which IC50 does the source give for `CCOc1cc(-c2ccc(N3CCC(Oc4ccccn4)CC3)nc2)c2c3cn[nH]c3nn2c1` [Compound 103, 6-ethoxy-4-(6-(4-(pyridin-2-yloxy)piperidin-1-yl)pyridin-3-yl)-1H-pyrazolo[3′,4′:3,4]pyrazolo[1,5-α]pyridine] here?
The IC50 was 11.1 nM.

With `CCOc1cc(-c2ccc(N3CCC(Oc4ccc(C)nn4)CC3)nc2)c2c3cn[nH]c3nn2c1` [Compound 104, 6-ethoxy-4-(6-(4-((6-methylpyridazin-3-yl)oxy)piperidin-1-yl)pyridin-3-yl)-1H-pyrazolo[3′,4′:3,4]pyrazolo[1,5-α]pyridine] as the compound, how does the IC50 read?
The IC50 was 6.4 nM.

How did the IC50 turn out when `CCOc1cc(-c2ccc(N3CC4COCC(C3)N4Cc3ccc(OC)nc3)nc2)c2c3cn[nH]c3nn2c1` [Compound 114, 7-(5-(6-ethoxy-1H-pyrazolo[3′,4′:3,4]pyrazolo[1,5-α]pyridin-4-yl)pyridin-2-yl)-9-((6-methoxypyridin-3-yl)methylene)-3-oxa-7,9-diazabicyclo[3.3.1]nonane] was run?
The IC50 was 3.6 nM.

How did the IC50 turn out when `CCOc1cc(-c2ccc(N3C[C@H]4CN(C(=O)c5c(F)cccc5Cl)C[C@H]4C3)nc2)c2c3cn[nH]c3nn2c1` [Compound 118, N-((3aR,6aS)-5-(5-(6-ethoxy-1H-pyrazolo[3′,4′:3,4]pyrazolo[1,5-α]pyridin-4-yl)pyridin-2-yl)hexahydropyrrolo[3,4-c]pyrrol-2(1H)-yl)-2-chloro-6-fluorobenzamide] was run?
Its IC50 is 7.7 nM.

With `CCOc1cc(-c2ccc(N3CCC(CO)(NC(=O)c4cc(F)ccc4F)CC3)nc2)c2c3cn[nH]c3nn2c1` [Compound 150, N-(1-(5-(6-ethoxy-1H-pyrazolo[3′,4′:3,4]pyrazolo[1,5-α]pyridin-4-yl)pyridin-2-yl)-4-(hydroxymethyl)piperidin-4-yl)-2,5-difluorobenzamide] as the compound, how does the IC50 read?
Its IC50 is 4.4 nM.

How did the IC50 turn out when `CCOc1cc(-c2ccc(N3C[C@H]4CN(Cc5ccc(OC)nc5)C[C@H]4C3)nc2)c2c3cn[nH]c3nn2c1` [Compound 152, 6-ethoxy-4-(6-((3aR,6aS)-5-((6-methoxypyridin-3-yl)methylene)-hexahydropyrrolo[3,4-c]pyrrol-2(1H)-yl)pyridin-3-yl)-1H-pyrazolo[3′,4′:3,4]pyrazolo[1,5-α]pyridine] was run?
The IC50 was 4.1 nM.

For `CCOc1cc(-c2ccc(N3CC4CCC(C3)N4C(=O)c3c(F)cccc3Cl)nc2)c2c3cn[nH]c3nn2c1` [Compound 155, (2-chloro-6-fluoro)((1R,5S)-3-(5-(6-ethoxy-1H-pyrazolo[3′,4′:3,4]pyrazolo[1,5-α]pyridin-4-yl)pyridin-2-yl)-3,8-diazabicyclo[3.2.1]octan-8-yl)benzamide], which IC50 is on record?
Its IC50 is 14.2 nM.

Which IC50 does the source give for `CCOc1cc(-c2ccc(N3CC4CCC(C3)N4Cc3ccc(OC)nc3)nc2)c2c3cn[nH]c3nn2c1` [Compound 156, 6-ethoxy-4-(6-((1R,5S)-8-((6-methoxypyridin-3-yl)methyl)-3,8-diazabicyclo[3.2.1]octan-3-yl)pyridin-3-yl)-1H-pyrazolo[3′,4′:3,4]pyrazolo[1,5-α]pyrazole] here?
The IC50 was 11.4 nM.

Which IC50 does the source give for `CCOc1cc(-c2ccc(N3C4CCC3CN(C(=O)c3c(F)cccc3Cl)C4)nc2)c2c3cn[nH]c3nn2c1` [Compound 157, (2-chloro-6-fluoro)((1R,5S)-8-(5-(6-ethoxy-1H-pyrazolo[3′,4′:3,4]pyrazolo[1,5-α]pyridin-4-yl)pyridin-2-yl)-3,8-diazabicyclo[3.2.1]octan-3-yl)benzamide] here?
The IC50 was 8.6 nM.

With `CCOc1cc(-c2ccc(N3C4CCC3CN(Cc3ccc(OC)nc3)C4)nc2)c2c3cn[nH]c3nn2c1` [Compound 158, 6-ethoxy-4-(6-((1R,5S)-3-((6-methoxypyridin-3-yl)methyl)-3,8-diazabicyclo[3.2.1]octan-3-yl)pyridin-8-yl)-1H-pyrazolo[3′,4′:3,4]pyrazolo[1,5-α]pyrazole] as the compound, how does the IC50 read?
Its IC50 is 18.7 nM.

With `CCOc1cc(-c2ccc(N3CC4CCC3CN4C(=O)c3c(F)cccc3Cl)nc2)c2c3cn[nH]c3nn2c1` (centres unmarked) [Compound 159] as the compound, how does the IC50 read?
Its IC50 is 16.1 nM.

`CCOc1cc(-c2ccc(N3CC4CCC3CN4Cc3ccc(OC)nc3)nc2)c2c3cn[nH]c3nn2c1` (stereo not drawn) [Compound 160, 6-ethoxy-4-(6-(5-((6-methoxypyridin-3-yl)methyl)-2,5-diazabicyclo[2.2.2]octan-2-yl)pyridin-3-y 1)-1H-pyrazolo[3′,4′:3,4]pyrazolo[1,5-α]pyridine] was tested. Which IC50 did it give?
Its IC50 is 8.2 nM.

How did the IC50 turn out when `CCOc1cc(-c2ccc(N3CCN(Cc4ccc(OC)nc4)C4(CC4)C3)nc2)c2c3cn[nH]c3nn2c1` [Compound 165, 6-ethoxy-4-(6-(4-((6-methoxypyridin-3-yl)methylene)-4,7-diazaspiro[2.5]octan-7-yl)pyridin-3-yl) -1H-pyrazolo[3′,4′:3,4]pyrazolo[1,5-α]pyridine] was run?
Its IC50 is 38.3 nM.

`CCOc1cc(-c2ccc(N3CC4COCC(C3)N4C(=O)c3c(F)cccc3Cl)nc2)c2c3cn[nH]c3nn2c1` [Compound 169, N-(7-(5-(6-ethoxy-1H-pyrazolo[3′,4′:3,4]pyrazolo[1,5-α]pyridin-4-yl)pyridin-2-yl)-3-oxa-7,9-azabicyclo[3.3.1]nonan-9-yl)-2-chloro-6-fluorobenzamide] was tested. Which IC50 did it give?
Its IC50 is 4.8 nM.

How did the IC50 turn out when `CCOc1cc(-c2ccc(N3C[C@@H]4[C@H](C3)[C@H]4NC(=O)c3c(F)cccc3Cl)nc2)c2c3cn[nH]c3nn2c1` [Compound 170, 2-chloro-N-((1R,5S,6S)-3-(5-(6-ethoxy-1H-pyrazolo[3′,4′:3,4]pyrazolo[1,5-α]pyridin-4-yl)pyridin-2-yl)-3-azabicyclo[3.1.0]hexan-6-yl)-6-fluorobenzamide] was run?
The IC50 was 27.3 nM.

`CCOc1cc(-c2ccc(N3C[C@@H]4[C@H](C3)[C@@H]4NC(=O)c3c(F)cccc3Cl)nc2)c2c3cn[nH]c3nn2c1` [Compound 172, 2-chloro-N-((1R,5S,6R)-3-(5-(6-ethoxy-1H-pyrazolo[3′,4′:3,4]pyrazolo[1,5-α]pyridin-4-yl)pyridin-2-yl)-3-azabicyclo[3.1.0]hexan-6-yl)-6-fluorobenzamide] was tested. Which IC50 did it give?
The IC50 was 8.2 nM.
